Results published in US6924300B2, “Oxyiminoalkanoic acid derivatives” (Takeda Chemical Industries, Ltd., priority 1998, dated 2005).
Like-named read-outs stand apart in the source and are kept apart here.

How the values were obtained:
[1] = system: KKA^y mice; test: Hypoglycemic and hypolipidemic actions in mice (test compound in diet, plasma glucose and triglyceride); assay type: in vivo; conditions: Mus musculus, feed or water, 96 h, 4 days
Method: A test compound was added to a powdered diet (CE-2, Clea Japan Inc.) at a concentration of 0.01%, and the diet was given ad libitum to KKA^y mice (9 to 12 weeks old, 5 animals in a group), a model of obese Type II diabetes mellitus (non-insulin dependent diabetes mellitus), for 4 days. During this period, water was given ad libitum. Blood was sampled from orbital venous plexus and plasma glucose and triglyceride levels were determined enzymatically using L type Wako Glu2 (Wako Pure Chemical In. Ltd.) and Iatro-MA701 TG kit (Iatron Laboratories Inc.) or L type Wako TG.H (Wako Pure Chemical Ind. Ltd.), respectively.
The value of each treatment group is represented as % reduction when compared with the non-treatment group, and summarized in Table 1.

[2] = target: T1, PPARγ-RXRα heterodimer (Homo sapiens, UniProt P37231); test: PPARγ-RXRα heterodimer transactivation assay (luciferase reporter in PPARγ: RXRα: 4ERPP/CHO-K1 cell); assay type: cell-based; conditions: luciferase induction, 48 hours, concentration for 50% of the maximum activity
T1 construct: expressed in transfected cells
T1 sequence (P37231 1-477 isoform P37231-2): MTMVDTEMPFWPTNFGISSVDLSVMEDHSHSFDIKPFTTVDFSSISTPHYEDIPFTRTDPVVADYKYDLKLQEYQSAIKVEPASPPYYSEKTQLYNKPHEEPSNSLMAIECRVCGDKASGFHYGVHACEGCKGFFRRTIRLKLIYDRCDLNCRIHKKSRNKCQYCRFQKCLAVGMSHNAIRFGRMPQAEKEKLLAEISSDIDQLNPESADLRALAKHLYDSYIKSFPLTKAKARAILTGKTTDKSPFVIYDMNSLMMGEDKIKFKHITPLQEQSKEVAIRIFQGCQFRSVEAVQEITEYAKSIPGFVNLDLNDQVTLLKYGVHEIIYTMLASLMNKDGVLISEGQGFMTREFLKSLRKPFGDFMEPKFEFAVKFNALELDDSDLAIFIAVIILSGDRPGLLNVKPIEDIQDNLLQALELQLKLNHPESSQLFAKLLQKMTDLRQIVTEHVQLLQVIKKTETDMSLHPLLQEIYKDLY
T1 sequence (P19793 1-462 partner): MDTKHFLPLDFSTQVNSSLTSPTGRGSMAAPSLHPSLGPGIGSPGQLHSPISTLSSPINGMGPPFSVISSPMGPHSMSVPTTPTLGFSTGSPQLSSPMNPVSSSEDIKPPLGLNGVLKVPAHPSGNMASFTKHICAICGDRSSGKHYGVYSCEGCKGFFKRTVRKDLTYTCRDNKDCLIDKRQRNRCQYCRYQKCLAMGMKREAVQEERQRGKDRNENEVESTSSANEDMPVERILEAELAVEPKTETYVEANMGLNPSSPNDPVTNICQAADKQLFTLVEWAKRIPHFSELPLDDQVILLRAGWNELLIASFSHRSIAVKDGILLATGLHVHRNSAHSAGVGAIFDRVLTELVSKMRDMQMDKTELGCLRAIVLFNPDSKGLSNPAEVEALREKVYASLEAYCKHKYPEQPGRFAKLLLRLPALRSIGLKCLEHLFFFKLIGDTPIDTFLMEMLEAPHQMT
Method: After washing a 96-well white plate with PBS (Phosphate-buffered saline), 90 μl of HAM F12 medium containing 0.1% fatty acid-free bovine serum albumin (BSA) and 10 μl of a test substance were added to the plate, which was then cultured in a carbonate gas incubator at 37° C. for 48 hours. After removing the medium, 40 μl of […] 7.5 (Wako Pure Chemical Ind. Ltd.) was added, and after stirring, a luciferase activity was determined using Lumistar (BMG Labtechnologies GmBH, Germany).
An induction magnitude was calculated based on the luciferase activity of each test substance with the luciferase activity in the non-treatment group being regarded as 1.
Subsequently, the cells were transferred into a HAM F12 medium containing 10% Fetal Bovine Serum and cultured for 24 hours and then the cells were scraped again and centrifuged, and then suspended in HAM F12 medium containing 10% Fetal Bovine Serum supplemented with 500 μg/ml of GENETICIN (Life Technologies, Inc., USA) and 250 μg of ZEOCIN (Invitrogen, USA) and diluted to the density of 10^4 cells/ml upon inoculation to a 96-well plate (Corning Coster Corporation, USA), which was cultured in a carbonate gas incubator at 37° C., whereby obtaining a GENETICIN- and ZEOCIN-resistant transformant.
Subsequently, the transformant cell line thus obtained was cultured in a 24-well plate (Corning Coster Corporation, USA) and then screened, by addition of 10 μM Pioglitazone, for a cell line in which the luciferase expression was induced, i.e., PPARγ: RXRα: 4ERPP/CHO-K1 cell.

[3] = system: KKA^y mice; test: Hypoglycemic and hypolipidemic actions in mice (test compound in diet, plasma glucose and triglyceride); assay type: in vivo; conditions: Mus musculus, feed or water, 96 h, dosage: 0.005% in diet, 4 days
[4] = 0.01% in diet, plasma triglyceride, Iatro-MA701 TG kit, compared with non-treatment group, read-out: Hypotriglyceridemic effect (% reduction)
[5] = 0.01% in powdered diet, plasma glucose, compared with non-treatment group, read-out: Hypoglycemic effect (% reduction)
[6] = 0.01% in diet, plasma triglyceride, quantified using L-type Wako TG.H, read-out: Hypotriglyceridemic effect (% reduction)

Compound | inhibition in vivo at 0.01 % [1, 4] [%] | inhibition in vivo at 0.01 % [1, 5] [%] | EC50 [2] [µM] | inhibition in vivo at 0.01 % [1, 6] [%] | melting point [°C] | inhibition in vivo at 0.005 % ([3]; plasma glucose, compared with non-treatment group, read-out: Hypoglycemic effect (% reduction)) [%] | inhibition in vivo at 0.005 % ([3]; plasma triglyceride, quantified using L-type Wako TG.H, read-out: Hypotriglyceridemic effect (% reduction)) [%]
Cc1oc(-c2ccccc2)nc1COc1ccc(CO/N=C(\C(=O)O)c2ccc(Oc3ccccc3)cc2)cc1 [Example 11, Z-2-[4-(5-methyl-2-phenyl-4-oxazolylmethoxy)benzyloxyimino]-2-(4-phenoxyphenyl)acetic acid] | 82 | 49 | 0.41 |  |  |  | 
Cc1oc(-c2ccccc2)nc1COc1ccc(CO/N=C(\CCC(=O)O)c2ccc(F)cc2)cc1 [Example 17, E-4-(4-fluorophenyl)-4-[4-(5-methyl-2-phenyl-4-oxazolylmethoxy)benzyloxyimino]butyric acid] |  | 49 | 0.047 | 59 |  |  | 
Cc1oc(-c2ccccc2)nc1COc1ccc(CO/N=C(\C(=O)O)C(C)C)cc1 [Example 25, Z-3-methyl-2-[4-(5-methyl-2-phenyl-4-oxazolylmethoxy)benzyloxyimino]butyric acid] | 66 | 38 | 0.79 |  |  |  | 
Cc1oc(-c2ccccc2)nc1COc1ccc(CO/N=C(\CCCCCCC(=O)O)c2ccccc2)cc1 [Example 81, E-8-[4-(5-methyl-2-phenyl-4-oxazolylmethoxy)benzyloxyimino]-8-phenyloctanoic acid] |  | 54 | 0.26 | 75 |  |  | 
Cc1oc(-c2ccccc2)nc1COc1ccc(CO/N=C(\CCC(N)=O)c2ccccc2)cc1 [Example 106, E-4-[4-(5-methyl-2-phenyl-4-oxazolylmethoxy)benzyloxyimino]-4-phenylbutyramide] |  |  | 0.33 |  | 164 to 165 | 46 | 65
